Assay results reported in ChEMBL document CHEMBL1124923, “A novel, nonsteroidal inhibitor of androgen binding to the rat androgen binding protein: diethyl [[[3-(2,6-dimethyl-4-pyridinyl)-4-fluorophenyl]amino]methylene] propanedioate” (J Med Chem, 1990).

Target: T1, Sex hormone-binding globulin (Rattus norvegicus, UniProt P08689)
T1 sequence (P08689 whole entry): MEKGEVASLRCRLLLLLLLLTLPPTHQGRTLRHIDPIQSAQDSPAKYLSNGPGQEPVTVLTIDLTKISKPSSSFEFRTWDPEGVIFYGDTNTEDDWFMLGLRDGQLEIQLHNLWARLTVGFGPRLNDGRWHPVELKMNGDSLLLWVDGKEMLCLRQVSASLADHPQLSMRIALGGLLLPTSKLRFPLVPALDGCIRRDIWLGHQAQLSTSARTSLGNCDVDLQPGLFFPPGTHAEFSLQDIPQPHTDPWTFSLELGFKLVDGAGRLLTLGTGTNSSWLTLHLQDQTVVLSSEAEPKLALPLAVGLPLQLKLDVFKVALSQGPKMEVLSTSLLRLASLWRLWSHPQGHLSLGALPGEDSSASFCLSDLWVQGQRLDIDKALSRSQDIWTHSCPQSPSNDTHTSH
Experiment: Inhibition of rat androgen binding protein (rABP) (n=9)

SMILES | IC50
C[C@]1(O)CC[C@H]2[C@@H]3CCC4=CC(=O)CCC4=C3C=C[C@@]21C [METRIBOLONE] | 3.7 nM

Target: T2, Sex hormone-binding globulin (Homo sapiens) (UniProt P04278)
T2 sequence (whole entry): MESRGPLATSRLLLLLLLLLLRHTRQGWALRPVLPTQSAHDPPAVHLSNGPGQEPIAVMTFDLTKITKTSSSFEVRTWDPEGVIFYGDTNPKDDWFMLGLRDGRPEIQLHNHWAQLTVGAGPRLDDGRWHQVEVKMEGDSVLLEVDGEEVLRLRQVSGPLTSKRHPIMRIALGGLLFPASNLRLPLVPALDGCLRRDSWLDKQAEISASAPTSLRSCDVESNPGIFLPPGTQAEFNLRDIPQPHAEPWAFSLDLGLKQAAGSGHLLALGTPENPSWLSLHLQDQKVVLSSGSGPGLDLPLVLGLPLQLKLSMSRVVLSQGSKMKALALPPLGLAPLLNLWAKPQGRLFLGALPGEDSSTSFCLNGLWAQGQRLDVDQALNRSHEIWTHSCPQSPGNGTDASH
Experiment: In vitro relative binding affinity against hSHBG (human sex hormone binding globulin)

SMILES | relative binding affinity (RBA)
C[C@]1(O)CC[C@H]2[C@@H]3CCC4=CC(=O)CCC4=C3C=C[C@@]21C [METRIBOLONE] | 0.2
Cc1cc(-c2ccccc2F)cc(C)n1 | < 0.01
Cc1cc2c(c(C)n1)c(=O)oc1ccccc12 | < 0.01
CCOC(=O)C(/C=N/c1cccc(-c2cc(C)nc(C)c2)c1)=C(\O)OCC | < 0.01
CCOC(=O)C(/C=N/c1ccc(F)c(-c2cc(C)nc(C)c2)c1)=C(/O)OCC | < 0.01
Cc1cc(-c2cc([N+](=O)[O-])ccc2F)cc(C)n1 | < 0.01
Cc1cc(-c2cc(N)ccc2F)cc(C)n1 | < 0.01
